“And” between values parts separate entries of the source, which are not always exact repeats. Equal entries are not always repeated. Marks after values point to notes of the source that are not given here.
Tests used:
[1] = system: small bowel transit and gastric emptying; experiment: Clinical study of gastrointestinal motility (gamma scintigraphy); format: in vivo, human; settings: healthy subjects, 20 mg or 200 mg single oral dose; study underpowered for this parameter
Experimental: A single-center, randomized, double-blind, placebo-controlled study is conducted to investigate the effect of tradipitant on small bowel transit time. A total of 15 healthy subjects, including 12 men and 3 women between the ages of 19 and 63 years, are enrolled in the study and receive at least 1 dose of study medication. A total of 13 subjects complete the study. Subjects are randomized to receive 20 mg of tradipitant, 200 mg of tradipitant, or placebo as a single oral dose within each of 3 periods, co-administered with a capsule radiolabeled with a maximum of 1MBq ^111In. Four hours post-dose, all subjects also receive a second capsule radiolabeled with a maximum of 4MBq ^99mTc. Each subject receives all 3 doses during the study. For all dosing regimens, in vivo gamma scintigraphic studies are performed at predetermined intervals, and the following scintigraphic parameters are analyzed: onset and completion of gastric emptying, onset and completion of colon arrival, initiation and completion of small bowel transit, and initial and complete disintegration of the capsule (anatomical location and time).

brain NK-1 receptors = experiment: Occupancy of brain NK-1 receptors with tracer GR205171; format: in vivo; settings: p.o., tracer GR205171 iv
Experimental: A tracer NK-1 antagonist compound (GR205171) is used to evaluate the ability of other NK-1 antagonists to occupy the brain NK-1 receptors. In these studies, the test compounds are administered orally and the tracer compound is administered intravenously afterward. The occupancy of the NK-1 receptors is evaluated by quantitating the amount of the tracer compound bound to the brain NK-1 receptors after increasing doses of the test compounds.

[2] = system: panel of 74 other receptors, enzymes, and ion channels; experiment: Selectivity panel binding; settings: test concentration of 1 μM
Description: Tradipitant is a selective neurokinin-1 (NK-1) receptor antagonist. […] By 3 different measures, tradipitant is also a potent centrally active NK-1 antagonist in vivo.

NK-1 receptor = target: T1, NK-1 receptor (Cavia porcellus, UniProt P30547); experiment: GR73632-induced vocalization in guinea pigs; format: in vivo; settings: guinea pig
T1 construct: potency and CNS penetration of NK-1 antagonists in the guinea pig; from tissue; host or cells: brain of living Dunkin/Hartley guinea pigs
Experimental: When introduced into the brain, the NK-1 receptor agonist substance P (SP) elicits distress vocalizations in the guinea pig that can be inhibited by NK-1 antagonists.
Male Dunkin/Hartley guinea pigs (200 to 250 grams) are orally administered either vehicle or an NK-1 antagonist. Approximately 45 minutes later (for dose response studies), the animals are anesthetized and 0.1 nmol of GR73632 (SP analog) in a vehicle volume of 5 μl is injected into the cerebral ventricle at the intersection of bregma and the midline of the skull. Animals are placed in a dark testing chamber located inside of a sound attenuation cubicle and vocalizations are recorded for 30 minutes following recovery from anesthesia. The time spent vocalizing is quantified for each animal. In the duration of action study, 0.1 mg/kg of tradipitant or vehicle solution is administered orally and then 2, 4, or 7 hours later, 0.1 nmol of GR73632 is administered into the cerebral ventricle as described above. Vocalizations are recorded and quantified as indicated above. Vehicle solutions are either CMC (FIG. 4 data) or an ethanol/emulphor solution (FIGS. 5 and 6). Data is analyzed using one-tailed t-tests.

[3] = system: apomorphine-induced emesis; experiment: Emetic challenge study (apomorphine-induced emesis) in beagle dogs; format: in vivo, beagle dog; settings: for Total No. Emetic Episodes: apomorphine 0.1 mg/kg iv 2 hours later, five dogs, APO control 28
Experimental: Over the five (5) weeks of the study, each animal receives each of the treatments, but only one per week. The purpose of this study is to determine if tradipitant suppresses apomorphine-induced emesis.
The mid dose of tradipitant is the approximate half-log interval between the low and high doses.
All animals are dosed over a period of five (5) weeks, with each dog receiving one of five different treatments on each day of dosing.
All dogs are fasted overnight prior to each treatment day and then fed approximately one (1) hour after oral dosing (approximately one (1) hour prior to administration of apomorphine). Individual doses are adjusted weekly for changes in body weight.
The dose regimen consists of a 5×5 Latin square design, in which each subject receives 1 dose or dose combination per week (6 day washout) as shown in Table 3 below.

[4] = Plasma concentration 2 hours post-dose in beagle dogs; format: in vivo; settings: Dog 1-5
Experimental: All animals are dosed over a period of five (5) weeks, with each dog receiving one of five different treatments on each day of dosing. […] In cases where apomorphine is administered alone, without prior treatment with tradipitant or aprepitant, apomorphine is given at approximately the same time as when given in combination with tradipitant or aprepitant.

T1 sequence (P30547 whole entry): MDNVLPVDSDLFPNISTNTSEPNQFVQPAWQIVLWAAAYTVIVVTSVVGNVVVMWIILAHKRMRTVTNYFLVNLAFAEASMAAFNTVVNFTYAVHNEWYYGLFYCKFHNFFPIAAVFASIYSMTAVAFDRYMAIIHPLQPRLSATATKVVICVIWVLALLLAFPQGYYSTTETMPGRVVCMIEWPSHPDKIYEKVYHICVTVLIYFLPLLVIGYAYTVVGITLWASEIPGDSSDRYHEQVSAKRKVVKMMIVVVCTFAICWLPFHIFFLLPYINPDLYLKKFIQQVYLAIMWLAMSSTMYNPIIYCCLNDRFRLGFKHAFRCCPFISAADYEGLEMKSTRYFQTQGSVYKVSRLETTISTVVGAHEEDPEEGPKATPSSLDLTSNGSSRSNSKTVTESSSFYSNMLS

inhibition of binding in panel of 74 other receptors, enzymes, and ion channels [2]: ≤ 50%
suppression of agonist-induced vocalization (NK-1 receptor; 0.1 mg/kg oral, 7 hours after administration): significantly active
duration of activity (NK-1 receptor; administered orally): exceeds 7 hours
inhibitory activity on vocalization (NK-1 receptor; at and below 0.1 mg/kg oral): retains significant inhibitory activity
inhibition of agonist-induced vocalization (NK-1 receptor; oral, 10, 1.0, 0.1 and 0.05 mg/kg (each p<0.001)): significant inhibition
minimum effective dose (MED), inhibition of vocalization (NK-1 receptor; oral, p<0.001 compared to controls): 0.025 mg/kg
Structure (SMILES): O=C(c1ccccc1Cl)c1cccnc1-c1nnn(Cc2cc(C(F)(F)F)cc(C(F)(F)F)c2)c1-c1ccncc1 [Tradipitant, {2-[1-(3,5-bistrifluoromethylbenzyl)-5-pyridin-4-yl-1H-[1,2,3]triazol-4-yl]-pyridin-3-yl}-(2-chlorophenyl)-methanone]
effect on gastric emptying [1]: No effect
ED50, occupancy of brain NK-1 receptors (brain NK-1 receptors): 0.04 mg/kg
Total No. Emetic Episodes ([3]; 0.3 mg/kg oral): 1**
Total No. Emetic Episodes ([3]; 1.0 mg/kg oral): 1**
Total No. Emetic Episodes ([3]; 3.0 mg/kg oral): 1**
effect against apomorphine-induced emesis ([3]; each dose tested (0.3, 1.0, and 3.0 mg/kg)): effective
Concentration of tradipitant in plasma, individual dogs ([4]; 0.3 mg/kg oral): 90.93 ng/mL and 83.38 ng/mL and 22.59 ng/mL and 51.20 ng/mL and 41.33 ng/mL
Concentration of tradipitant in plasma, individual dogs ([4]; 1.0 mg/kg oral): 240.84 ng/mL and 100.97 ng/mL and 61.56 ng/mL and 175.58 ng/mL and 86.49 ng/mL
Concentration of tradipitant in plasma, individual dogs ([4]; 3.0 mg/kg oral): 316.20 ng/mL and 682.91 ng/mL and 119.79 ng/mL and 122.73 ng/mL and 256.58 ng/mL

Reference: patent US20240299373A1, “IMPROVED USE OF TRADIPITANT IN MOTION SICKNESS” (Vanda Pharmaceuticals Inc., priority 2023, published 2024)
